Reference: publication PMC12096079, “m^6A modification is incorporated into bacterial mRNA without specific functional benefit” (Nucleic Acids Research, 2025)

Molecular target: YafS (Escherichia coli, UniProt P75672)
Assay: intrinsic tryptophan fluorescence quenching titration (ex […] nm, em […] nm)
Format: binding

Chain of YafS (P75672 whole entry): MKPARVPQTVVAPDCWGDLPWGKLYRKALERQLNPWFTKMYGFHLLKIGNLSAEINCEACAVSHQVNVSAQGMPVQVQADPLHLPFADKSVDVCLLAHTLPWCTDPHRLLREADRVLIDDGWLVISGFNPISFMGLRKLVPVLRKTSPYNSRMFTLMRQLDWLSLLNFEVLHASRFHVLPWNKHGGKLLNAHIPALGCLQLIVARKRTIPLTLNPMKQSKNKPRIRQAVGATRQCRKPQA

Kd: 680 ± 100 nM
Structure (SMILES): C[S+](CC[C@H](N)C(=O)O)C[C@H]1O[C@@H](n2cnc3c(N)ncnc32)[C@H](O)[C@@H]1O (stereo partly shown) [SAM]
